Experiments:
[1] = Inhibition of Tel-fused KDR expressed in mouse BAF3 cells
[2] = Inhibition of Tel-fused LCK expressed in mouse BAF3 cells
[3] = Inhibition of Tel-fused LYN expressed in mouse BAF3 cells
[4] = Inhibition of Tel-fused SRC expressed in mouse BAF3 cells

SMILES | IC50 [1] | IC50 [2] | IC50 [3] | IC50 [4]
Cc1ccc(NC(=O)c2cccc(C(F)(F)F)c2)cc1Nc1nc2ccccc2n1-c1cc(N[C@H]2CC[C@H](N)CC2)ncn1 [N-(3-(1-(6-(trans-4-aminocyclohexylamino)pyrimidin-4-yl)-1H-benzo[d]imidazol-2-ylamino)-4-methylphenyl)-3-(trifluoromethyl)benzamide] | 609 nM | 392 nM | 547 nM | 739 nM
Cc1cccc(NC(=O)c2ccc(C)c(Nc3nc4ccccc4n3-c3cc(N)ncn3)c2)c1 [3-(1-(6-aminopyrimidin-4-yl)-1H-benzo[d]imidazol-2-ylamino)-4-methyl-N-m-tolylbenzamide] | 1020 nM | 83 nM | 1080 nM | 7170 nM
COc1cccc(NC(=O)c2ccc(C)c(Nc3nc4ccccc4n3-c3cc(N)ncn3)c2)c1 [3-(1-(6-aminopyrimidin-4-yl)-1H-benzo[d]imidazol-2-ylamino)-N-(3-methoxyphenyl)-4-methylbenzamide] | 516 nM | 157 nM | 437 nM | 4390 nM
Cc1ccc(NC(=O)c2cccc(C(F)(F)F)c2)cc1Nc1nc2ccccc2n1-c1cc(NCCN2CCN(C)CC2)ncn1 [N-(4-methyl-3-(1-(6-(2-(4-methylpiperazin-1-yl)ethylamino)pyrimidin-4-yl)-1H-benzo[d]imidazol-2-ylamino)phenyl)-3-(trifluoromethyl)benzamide] | 605 nM | 56 nM | 204 nM | 918 nM
Cc1ccc(C(=O)Nc2cccc3cnccc23)cc1Nc1nc2ccccc2n1-c1cc(N)ncn1 [3-(1-(6-aminopyrimidin-4-yl)-1H-benzo[d]imidazol-2-ylamino)-N-(isoquinolin-5-yl)-4-methylbenzamide] | 10600 nM | 3240 nM | 7840 nM | 7610 nM
Cc1cn(-c2cc(NC(=O)c3ccc(C)c(Nc4nc5ccccc5n4-c4cc(N)ncn4)c3)cc(C(F)(F)F)c2)cn1 [3-(1-(6-aminopyrimidin-4-yl)-1H-benzo[d]imidazol-2-ylamino)-4-methyl-N-(3-(4-methyl-1H-imidazol-1-yl)-5-(trifluoromethyl)phenyl)benzamide] | 20 nM | 14 nM | 28 nM | 107 nM

Results, then the molecule that gave them:

IC50 [1] | IC50 [2] | IC50 [3] | IC50 [4] | SMILES
464 nM | 52 nM | 272 nM | 5380 nM | Cc1ccc(C(=O)Nc2cccc(Br)c2)cc1Nc1nc2ccccc2n1-c1cc(N)ncn1 [3-(1-(6-aminopyrimidin-4-yl)-1H-benzo[d]imidazol-2-ylamino)-N-(3-bromophenyl)-4-methylbenzamide]
135 nM | 702 nM | > 10000 nM | > 10000 nM | Cc1cc(NC(=O)c2ccc(C)c(Nc3nc4ccccc4n3-c3cc(N)ncn3)c2)ccn1 [3-(1-(6-aminopyrimidin-4-yl)-1H-benzo[d]imidazol-2-ylamino)-4-methyl-N-(2-methylpyridin-4-yl)benzamide]
133 nM | 20 nM | 43 nM | 117 nM | Cc1ccc(C(=O)Nc2cccc(C(F)(F)F)c2)cc1Nc1nc2ccccc2n1-c1ncnc(NCCCN2CCN(C)CC2)n1 [4-methyl-3-(1-(4-(3-(4-methylpiperazin-1-yl)propylamino)-1,3,5-triazin-2-yl)-1H-benzo[d]imidazol-2-ylamino)-N-(3-(trifluoromethyl)phenyl)benzamide]
55 nM | 20 nM | 15 nM | > 10000 nM | Cc1ccc(C(=O)Nc2cccc(C(F)(F)F)c2)cc1Nc1nc2ccccc2n1-c1cc(N)ncn1 [3-(1-(6-aminopyrimidin-4-yl)-1H-benzo[d]imidazol-2-ylamino)-4-methyl-N-(3-(trifluoromethyl)phenyl)benzamide]
4 nM | 4 nM | 5 nM | 4 nM | Cc1ccc(NC(=O)c2ccc(C(C)(C)C)s2)cc1Nc1nc2ccccc2n1-c1cc(N)ncn1 [N-(3-(1-(6-aminopyrimidin-4-yl)-1H-benzo[d]imidazol-2-ylamino)-4-methylphenyl)-5-tert-butylthiophene-2-carboxamide]

Source: BindingDB's records for doi:10.1016/j.bmcl.2009.09.123 (Genomics Institute of The Novartis Research Foundation, 2009)
